Laboratory results reported in patent publication EP4768487A1, “FUSED LACTAM RING COMPOUND AND USE THEREOF” (Chengdu Zenitar Biomedical Technology Co., Ltd., priority 2023, dated 2025).

Experiments:
[1] = molecular target: T1, PARP-5A (Homo sapiens, UniProt O95271); assay: biochemical
T1 sequence (O95271 1-1327): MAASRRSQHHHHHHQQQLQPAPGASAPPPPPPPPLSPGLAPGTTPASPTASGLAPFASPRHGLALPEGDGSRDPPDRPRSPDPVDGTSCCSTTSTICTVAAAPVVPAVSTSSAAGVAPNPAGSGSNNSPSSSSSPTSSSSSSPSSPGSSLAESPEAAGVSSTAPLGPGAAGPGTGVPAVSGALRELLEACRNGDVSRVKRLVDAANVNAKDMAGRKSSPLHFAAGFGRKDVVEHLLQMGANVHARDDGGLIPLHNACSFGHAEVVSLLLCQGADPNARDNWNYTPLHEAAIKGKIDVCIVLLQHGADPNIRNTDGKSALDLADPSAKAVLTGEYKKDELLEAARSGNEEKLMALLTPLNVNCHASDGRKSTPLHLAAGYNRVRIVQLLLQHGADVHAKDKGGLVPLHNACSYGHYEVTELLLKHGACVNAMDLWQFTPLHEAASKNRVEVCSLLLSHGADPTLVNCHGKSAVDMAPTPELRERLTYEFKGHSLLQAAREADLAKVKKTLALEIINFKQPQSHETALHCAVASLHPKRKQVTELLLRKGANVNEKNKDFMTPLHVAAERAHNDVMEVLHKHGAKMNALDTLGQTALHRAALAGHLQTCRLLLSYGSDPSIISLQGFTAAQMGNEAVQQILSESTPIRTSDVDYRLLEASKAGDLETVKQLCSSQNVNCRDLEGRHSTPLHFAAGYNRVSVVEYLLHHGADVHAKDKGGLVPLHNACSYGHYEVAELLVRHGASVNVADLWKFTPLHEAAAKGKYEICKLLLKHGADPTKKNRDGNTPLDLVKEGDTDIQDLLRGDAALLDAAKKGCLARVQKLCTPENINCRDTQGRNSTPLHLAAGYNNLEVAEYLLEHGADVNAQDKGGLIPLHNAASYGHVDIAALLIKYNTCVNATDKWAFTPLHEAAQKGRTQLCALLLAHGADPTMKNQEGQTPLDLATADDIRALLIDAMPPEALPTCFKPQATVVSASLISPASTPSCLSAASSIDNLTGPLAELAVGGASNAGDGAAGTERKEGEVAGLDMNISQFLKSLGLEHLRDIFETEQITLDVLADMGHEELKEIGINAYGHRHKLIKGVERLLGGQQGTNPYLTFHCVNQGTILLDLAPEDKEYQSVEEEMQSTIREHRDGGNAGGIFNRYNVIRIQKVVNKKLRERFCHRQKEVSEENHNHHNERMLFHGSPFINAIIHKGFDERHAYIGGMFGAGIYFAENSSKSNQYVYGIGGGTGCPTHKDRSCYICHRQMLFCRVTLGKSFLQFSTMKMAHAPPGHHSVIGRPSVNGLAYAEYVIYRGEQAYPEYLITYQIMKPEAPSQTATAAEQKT

[2] = molecular target: T2, PARP-7 (Homo sapiens, UniProt Q7Z3E1); assay: Assay for enzymatic selectivity for PARP family: PARP-7
T2 sequence (Q7Z3E1 1-657): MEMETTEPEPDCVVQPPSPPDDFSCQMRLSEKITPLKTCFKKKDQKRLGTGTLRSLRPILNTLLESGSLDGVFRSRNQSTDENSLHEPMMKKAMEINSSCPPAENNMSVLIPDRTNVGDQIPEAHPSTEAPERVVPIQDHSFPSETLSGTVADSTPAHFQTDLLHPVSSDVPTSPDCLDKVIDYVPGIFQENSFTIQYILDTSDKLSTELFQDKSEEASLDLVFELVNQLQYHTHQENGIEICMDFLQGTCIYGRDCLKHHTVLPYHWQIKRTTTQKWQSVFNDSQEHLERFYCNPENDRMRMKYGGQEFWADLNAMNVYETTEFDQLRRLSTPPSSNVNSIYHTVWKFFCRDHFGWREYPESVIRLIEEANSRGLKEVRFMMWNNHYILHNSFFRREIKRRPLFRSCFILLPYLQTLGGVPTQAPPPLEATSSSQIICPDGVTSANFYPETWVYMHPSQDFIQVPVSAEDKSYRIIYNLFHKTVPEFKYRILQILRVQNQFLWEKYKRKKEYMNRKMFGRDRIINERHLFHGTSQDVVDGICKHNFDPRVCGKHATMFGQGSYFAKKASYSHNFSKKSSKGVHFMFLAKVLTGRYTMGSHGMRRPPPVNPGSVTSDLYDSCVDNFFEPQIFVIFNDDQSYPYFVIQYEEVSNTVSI

[3] = molecular target: T3, PARP-12 (Homo sapiens, UniProt Q9H0J9); assay: Assay for enzymatic selectivity for PARP family: PARP-12
T3 sequence (Q9H0J9 1-701): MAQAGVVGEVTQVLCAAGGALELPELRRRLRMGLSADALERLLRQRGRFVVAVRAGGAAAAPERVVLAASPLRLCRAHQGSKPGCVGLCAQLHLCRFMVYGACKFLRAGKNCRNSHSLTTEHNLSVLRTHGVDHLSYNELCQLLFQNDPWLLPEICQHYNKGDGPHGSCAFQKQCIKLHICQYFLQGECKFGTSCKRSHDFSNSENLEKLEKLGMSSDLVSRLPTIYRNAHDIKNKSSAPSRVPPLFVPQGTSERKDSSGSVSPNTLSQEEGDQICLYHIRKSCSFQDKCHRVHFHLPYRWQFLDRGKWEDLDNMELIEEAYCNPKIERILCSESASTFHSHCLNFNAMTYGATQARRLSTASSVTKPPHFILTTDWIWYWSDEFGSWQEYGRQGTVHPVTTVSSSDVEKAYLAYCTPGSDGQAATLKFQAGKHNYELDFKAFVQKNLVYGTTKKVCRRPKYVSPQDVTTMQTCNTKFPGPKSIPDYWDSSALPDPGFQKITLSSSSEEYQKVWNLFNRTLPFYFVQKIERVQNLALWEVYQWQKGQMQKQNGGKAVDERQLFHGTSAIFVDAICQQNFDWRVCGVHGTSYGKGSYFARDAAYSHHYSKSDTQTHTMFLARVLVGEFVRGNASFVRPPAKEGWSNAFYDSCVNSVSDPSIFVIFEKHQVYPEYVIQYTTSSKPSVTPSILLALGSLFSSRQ

[4] = tested on: MDA-MB-436 breast cancer subcutaneous xenograft tumor model; assay: In vivo pharmacodynamic study of compound 2 in MDA-MB-436 subcutaneous xenograft tumor model; conditions: oral once daily, 30 days
Description: Experimental process: Twenty-four female NOD/SCID mice were used in the experiment. […] All groups were subjected to oral administration once daily. Meanwhile, the mice were weighed every 2 days, and the length and width of the tumors were measured with a vernier caliper. After 30 days of administration, the tumor-bearing mice were anesthetized and sacrificed. The tumor tissues were dissected, weighed, and photographed, and the tumor growth inhibition rates were calculated.

Structure (SMILES)	IC50 [1]	IC50 [2]	IC50 [3]	tumor growth inhibition rate ([4]; 1 mg/kg)	tumor growth inhibition rate ([4]; 3 mg/kg)	tumor inhibitory effect compared with the reference drug Olaparib 100 mg/kg group (in words) ([4]; 3 mg/kg)
CCc1cc2c([nH]c1=O)CC(CN1CCN(c3ccc(C(=O)NC)nc3F)CC1)OC2 (stereo not drawn) [Compound 2, 5-(4-((3-Ethyl-2-oxo-1,5,7,8-tetrahydro-2H-pyrano[4,3-b]pyridin-7-yl)methyl)piperazin-1-yl)-6-fluoro-N-methyl picolinamide]	975 nM	> 10000 nM	1990 nM	92.61%	95.74%	significantly superior
CNC(=O)c1ccc(N2CCN(C[C@H]3CCc4nc(C)c(=O)[nH]c4C3)CC2)c(F)n1 [Example 45, (S)-6-Fluoro-N-methyl-5-(4-((2-methyl-3-oxo-3,4,5,6,7,8-hexahydroquinoxaline-6-yl)methyl)piperazin-1-yl)picolinamide]	1930 nM	5990 nM	862 nM			
